Results from patent publication US6403082B1, “Bacteriocins, transport and vector system and method of use thereof” (priority 1996, dated 2002).
Where “and” joins values, the source holds several entries; their conditions need not be identical. Equal entries are not always repeated. Marks after values point to notes of the source that are not given here. Ends that are not written are not given here.

Legend:
Assay in all cases: Spot test of partially purified bacteriocins on strains grown on agar
[1] = test system: Clostridia vegetative cells; format: cell-based, Clostridium
Leuconostoc = test system: Leuconostoc
Carnobacteria = test system: Carnobacteria
[2] = test system: Bacillus vegetative cells; format: cell-based
Lactobacillus = test system: Lactobacillus
G negative strains = format: cell-based
Clostridia spores = format: cell-based, Clostridium
Listeria = test system: Listeria
Streptococcus = test system: Streptococcus
Staphylococcus = test system: Staphylococcus
Lactococcus = test system: Lactococcus
Pediococcus = test system: Pediococcus
Enterococcus = test system: Enterococcus
Bacillus spores = format: cell-based
Brochothrix = test system: Brochothrix

Substance | Number of strains inhibited/Number of strains tested ([1]; 1AU (10 μl/spot of 100 AU/ml)) | Number of strains inhibited/Number of strains tested ([1]; 8AU (10 μl/spot of 800 AU/ml)) | Number of strains inhibited/Number of strains tested (Leuconostoc; 1AU (10 μl/spot of 100 AU/ml)) | Number of strains inhibited/Number of strains tested (Leuconostoc; 8AU (10 μl/spot of 800 AU/ml)) | Number of strains inhibited/Number of strains tested (Carnobacteria; 1AU (10 μl/spot of 100 AU/ml)) | Number of strains inhibited/Number of strains tested (Carnobacteria; 8AU (10 μl/spot of 800 AU/ml)) | Number of strains inhibited/Number of strains tested ([2]; 1AU (10 μl/spot of 100 AU/ml)) | Number of strains inhibited/Number of strains tested ([2]; 8AU (10 μl/spot of 800 AU/ml)) | Number of strains inhibited/Number of strains tested (Lactobacillus; 1AU (10 μl/spot of 100 AU/ml)) | Number of strains inhibited/Number of strains tested (Lactobacillus; 8AU (10 μl/spot of 800 AU/ml)) | Number of strains inhibited/Number of strains tested (G negative strains; 1AU (10 μl/spot of 100 AU/ml)) | Number of strains inhibited/Number of strains tested (G negative strains; 8AU (10 μl/spot of 800 AU/ml)) | Number of strains inhibited/Number of strains tested (Clostridia spores; 1AU (10 μl/spot of 100 AU/ml)) | Number of strains inhibited/Number of strains tested (Clostridia spores; 8AU (10 μl/spot of 800 AU/ml)) | Number of strains inhibited/Number of strains tested (Listeria; 1AU (10 μl/spot of 100 AU/ml)) | Number of strains inhibited/Number of strains tested (Listeria; 8AU (10 μl/spot of 800 AU/ml)) | Number of strains inhibited/Number of strains tested (Streptococcus; 1AU (10 μl/spot of 100 AU/ml)) | Number of strains inhibited/Number of strains tested (Streptococcus; 8AU (10 μl/spot of 800 AU/ml)) | Number of strains inhibited/Number of strains tested (Staphylococcus; 1AU (10 μl/spot of 100 AU/ml)) | Number of strains inhibited/Number of strains tested (Staphylococcus; 8AU (10 μl/spot of 800 AU/ml)) | other results
Pedi PA-1: pediocin PA-1, a bacteriocin from Pediococcus acidilactici PAC1.0 (KYYGNGVTCGKHSCSVDWGKATTCIINNGAMAWATGGHQGNHKC; ends and bridges not checked; cysteine pairing not given here; UniProt P29430 19-62, looked up) | 0/8 | 0/8 | 4/9 | 5/9 | 7/19 | 7/19 | 2/5 | 2/5 | 1/17 | 2/17 | 0/29 | 0/29 | 0/7 | 0/7 | 39/42 | 40/42 | 0/3 | 0/3 | 0/7 | 1/7 | Number of strains inhibited/Number of strains tested (Lactococcus; 1AU (10 μl/spot of 100 AU/ml)): 0/8; Number of strains inhibited/Number of strains tested (Lactococcus; 8AU (10 μl/spot of 800 AU/ml)): 0/8; Number of strains inhibited/Number of strains tested (Pediococcus; 1AU (10 μl/spot of 100 AU/ml)): 0/3; Number of strains inhibited/Number of strains tested (Pediococcus; 8AU (10 μl/spot of 800 AU/ml)): 2/3; Number of strains inhibited/Number of strains tested (Enterococcus; 1AU (10 μl/spot of 100 AU/ml)): 7/14; Number of strains inhibited/Number of strains tested (Enterococcus; 8AU (10 μl/spot of 800 AU/ml)): 11/14; Number of strains inhibited/Number of strains tested (Bacillus spores; 1AU (10 μl/spot of 100 AU/ml)): 0/5; Number of strains inhibited/Number of strains tested (Bacillus spores; 8AU (10 μl/spot of 800 AU/ml)): 0/5; Number of strains inhibited/Number of strains tested (Brochothrix; 1AU (10 μl/spot of 100 AU/ml)): 0/14; Number of strains inhibited/Number of strains tested (Brochothrix; 8AU (10 μl/spot of 800 AU/ml)): 0/14
Nisin | 7/8 | 8/8 | 9/9 | 9/9 | 19/19 | 19/19 | 5/5 | 5/5 | 16/17 | 17/17 | 0/29 | 0/29 | 5/7 | 7/7 | 42/42 | 42/42 | 1/3 | 2/3 | 3/7 | 7/7 | Number of strains inhibited/Number of strains tested (Lactococcus; 1AU (10 μl/spot of 100 AU/ml)): 4/8; Number of strains inhibited/Number of strains tested (Lactococcus; 8AU (10 μl/spot of 800 AU/ml)): 6/8^t and 6/8; Number of strains inhibited/Number of strains tested (Pediococcus; 1AU (10 μl/spot of 100 AU/ml)): 3/3; Number of strains inhibited/Number of strains tested (Pediococcus; 8AU (10 μl/spot of 800 AU/ml)): 3/3; Number of strains inhibited/Number of strains tested (Enterococcus; 1AU (10 μl/spot of 100 AU/ml)): 12/14; Number of strains inhibited/Number of strains tested (Enterococcus; 8AU (10 μl/spot of 800 AU/ml)): 14/14; Number of strains inhibited/Number of strains tested (Bacillus spores; 1AU (10 μl/spot of 100 AU/ml)): 5/5; Number of strains inhibited/Number of strains tested (Bacillus spores; 8AU (10 μl/spot of 800 AU/ml)): 5/5; Number of strains inhibited/Number of strains tested (Brochothrix; 1AU (10 μl/spot of 100 AU/ml)): 14/14; Number of strains inhibited/Number of strains tested (Brochothrix; 8AU (10 μl/spot of 800 AU/ml)): 14/14
